Conditions: pH 7
Text: A third class of azithromycin sustained-release dosage forms includes the osmotic delivery devices or “osmotic pumps” as they are known in the art. Osmotic pumps comprise a core containing an osmotically effective composition surrounded by a semipermeable membrane. The term “semipermeable” in this context means that water can pass through the membrane, but solutes dissolved in water cannot. In use, when placed in an aqueous environment, the device imbibes water due to the osmotic activity of the core composition. […] The osmotically effective composition includes water-soluble species, which generate a colloidal osmotic pressure, and water-swellable polymers.

| solubility | osmotic pressure corresponding to the solubility | Compound |
| --- | --- | --- |
| much lower |  | CC[C@H]1OC(=O)[C@H](C)[C@@H](O[C@H]2C[C@@](C)(OC)[C@@H](O)[C@H](C)O2)[C@H](C)[C@@H](O[C@@H]2O[C@H](C)C[C@H](N(C)C)[C@H]2O)[C@](C)(O)C[C@@H](C)CN(C)[C@H](C)[C@@H](O)[C@]1(C)O [azithromycin dihydrate] |
| about 100 mg/ml | about 3 atmospheres | Azithromycin fumarate |
